Inhibition in vivo and inhibition data for twelve molecules are collected here from patent US5047411A, “Benzazole compounds and pharmaceutical composition comprising the same” (Fujisawa Pharmaceutical Co., Ltd., priority 1988, dated 1991).

Molecules are shown by their SMILES. Counter-ions that a name gives are not always drawn.

The first test has as its system stress ulcer. The test is described as follows: Test A: Inhibition of stress ulcer. It is filed as in vivo, male Sprague-Dawley rats. To be noted: rat, oral, given just before immobilization, ulcer area after 7 hours vs control. As for the experimental part:
Five male Sprague-Dawley rats, aged 7 weeks and weighing about 200 g were used per group for the study on stress ulcer after the fast for 24 hours. Each animal was immobilized in a restrain cage and immersed to a level of the xiphoid in a water bath kept 22° C. Each of the test compound suspended in 0.1% methylcellulose solution was administered orally (5 ml/kg) just before the immobilization. Seven hours later, the animals were sacrificed and their stomachs were removed. The stomach was then fixed with 2% formalin. The area of ulcers was measured for each animal, and percentage of inhibition was calculated by comparing the mean area of ulcers (mm^2) in the test animals with that in the control animals.
`Nc1nc2ccc(Cc3ccccn3)cc2s1` [Test Compound (e), 6-[(2-Pyridyl)methyl]-2-aminobenzothiazole] had an inhibition in vivo at 32 mg/kg of 98.2%.
`Cc1ccn2c(C)c(CCc3ccc4nc(N)sc4c3)nc2c1` [Test Compound (g), 6-[2-(3,7-Dimethylimidazo[1,2-a]pyridin-2-yl)ethyl]-2-aminobenzothiazole d ihydrochloride] came in with an inhibition in vivo at 32 mg/kg of 85.4%.
With `Nc1nc2ccc(CCc3ccccn3)cc2s1` [Test Compound (c), 6-[2-(2-Pyridyl)ethyl]-2-aminobenzothiazole], the inhibition in vivo at 32 mg/kg amounted to 88.5%.
On to `CNc1nc2ccc(Cc3ccccn3)cc2s1` [Test Compound (a), 6-[(2-Pyridyl)methyl]-2-methylaminobenzothiazole], for which 32 mg/kg produced 87.8% inhibition in vivo.
For `COc1ccn2c(C)c(CCc3ccc4nc(N)oc4c3)nc2c1` [Test Compound (h), 6-[2-(7-Methoxy-3-methylimidazo[1,2-a]pyridin-2-yl)ethyl]-2-aminobenzoxazole], testing at 32 mg/kg gave an inhibition in vivo of 93.4%.
With `CCNc1nc2ccc(CCc3nc4cc(OC)ccn4c3C)cc2o1` [Test Compound (l), 2-Ethylamino-6-[2-(7-methoxy-3-methylimidazo[1,2-a]pyridin-2-yl)ethyl]benzoxazole dihydrochloride], testing at 32 mg/kg gave an inhibition in vivo of 98.6%.
Consider `CCNc1nc2ccc(CCc3cn4ccc(C)cc4n3)cc2o1` [Test Compound (d)], for which 32 mg/kg produced 84.6% inhibition in vivo.
`CNc1nc2ccc(CCc3nc4cc(C)ccn4c3C)cc2o1` [Test Compound (f), 6-[2-(3,7-Dimethylimidazo[1,2-a]pyridin-2-yl)ethyl]-2-methylaminobenzoxazole] came in with an inhibition in vivo at 32 mg/kg of 85.1%.
`CCNc1nc2ccc(CCc3ccccn3)cc2s1` [Test Compound (b), 6-[2-(2-Pyridyl)ethyl]-2-ethylaminobenzothiazole] showed an inhibition in vivo at 32 mg/kg of 83.9%.

In another test the target is T1, H2-receptor (Cavia porcellus, UniProt P47747).
T1 construct: from tissue; host or cells: guinea-pig atrium (isolated atrial strip)
T1 sequence (P47747 whole entry): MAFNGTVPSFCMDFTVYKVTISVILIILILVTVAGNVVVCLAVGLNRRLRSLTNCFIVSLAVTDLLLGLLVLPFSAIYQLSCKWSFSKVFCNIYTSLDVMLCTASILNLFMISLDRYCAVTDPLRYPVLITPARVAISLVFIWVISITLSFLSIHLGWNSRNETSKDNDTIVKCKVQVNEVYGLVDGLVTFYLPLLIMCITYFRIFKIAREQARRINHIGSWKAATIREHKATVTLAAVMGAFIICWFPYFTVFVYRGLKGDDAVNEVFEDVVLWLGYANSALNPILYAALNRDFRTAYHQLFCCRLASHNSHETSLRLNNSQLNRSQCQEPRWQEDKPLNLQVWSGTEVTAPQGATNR
Kind of test: Test B: H2-receptor antagonism in isolated guinea-pig atrium. The class given is cell-based. Conditions: 0.5 h, dose 1.0 × 10^-6 g/ml, inhibition of histamine-induced increase in beating rate, 30 minutes after dosing. As for the experimental part:
The atrial strip isolated from guinea-pig was suspended under an initial tension 0.3 to 0.6 g in an organ bath containing Tyrode solution at 30° C., aerated 95%O2 -5%CO2 gas. The beating rate and amplitude of contraction of the atrium were recorded by means of a transducer and a polygraph. Histamine ([…]) was added to the bathing fluid and the increase in beating rate after dosing was measured. Addition of test compound was made 30 minutes after washing out histamine. Inhibitory effect of test compound was calculated by comparing histamine-induced increases in beating rate before and 30 minutes after dosing with test compound.
Molecule `CNc1nc2ccc(CCc3nc4cc(OC)ccn4c3C)cc2o1` [Test Compound (k), 6-[2-(7-Methoxy-3-methylimidazo[1,2-a]pyridin-2-yl)ethyl]-2-methylaminobenzoxazole dihydrochloride] yielded an inhibition at 1 µg/mL of 92.5%.

Staying with this test, now noted: 0.5 h, dose 3.2 × 10^-6 g/ml, inhibition of histamine-induced increase in beating rate, 30 minutes after dosing.
Turning to `Cc1ccn2c(C)c(CCc3ccc4nc(N)oc4c3)nc2c1` [Test Compound (i), 6-[2-(3,7-Dimethylimidazo[1,2-a]pyridin-2-yl)ethyl]-2-aminobenzoxazole], the inhibition at 3.2 µg/mL amounted to 93.1%.
The same measure, in the same setting: the value for `COc1ccn2c(C)c(CCc3ccc4nc(N)oc4c3)nc2c1` [Test Compound (h), 6-[2-(7-Methoxy-3-methylimidazo[1,2-a]pyridin-2-yl)ethyl]-2-aminobenzoxazole] was 100%; that for `CCNc1nc2ccc(CCc3nc4cc(C)ccn4c3C)cc2o1` [Test Compound (j), 6-[2-(3,7-Dimethylimidazo[1,2-a]pyridin-2-yl)ethyl]-2-ethylaminobenzoxazole] was 98%.
